Converted amounts (≈) assume the structure as drawn.
Key:
[1] = system: vancomycin-intermediate Staphylococcus aureus (VISA); assay: Broth microdilution MIC (Example 12)
[2] = system: S. aureus ATCC 29213; assay: Broth microdilution MIC, ATCC QC organism (Example 12); type: cell-based, Staphylococcus aureus; conditions: S. aureus ATCC 29213, QC organism
Procedure: The in vitro activity of BisEDT and two additional bismuth-thiol investigational agents (MB-2B and MB-6) was determined for isolates of Escherichia coli, Klebsiella pneumoniae, Pseudomonas aeruginosa and Acinetobacter baumannii characterized for extended-spectrum β-lactamases (ESBL) and/or carbapenem resistance. In addition, vancomycin-intermediate Staphylococcus aureus (VISA) were evaluated. The majority of the isolates tested in the current study were multidrug-resistant (MDR) as defined by resistance to at least three different antibiotic classes. Susceptibility to the investigational compounds and relevant comparators was determined by broth microdilution conducted in accordance with guidelines from the Clinical and Laboratory Standards Institute (CLSI; 2,3).

[3] = system: S. aureus ATCC 29213; conditions: S. aureus ATCC 29213, QC organism; cited from earlier work
[4] = system: S. pneumoniae (pneumococci); assay: Broth microdilution MIC (Example 11); type: cell-based, Streptococcus pneumoniae
[5] = system: S. pneumoniae (pneumococci); conditions: S. pneumoniae MMX 6837 (ATCC 49619); cited from earlier work
[6] = system: beta-hemolytic streptococci (S. pyogenes, S. agalactiae); assay: Broth microdilution MIC (Example 11); type: cell-based, Streptococcus pyogenes, Streptococcus agalactiae
[7] = Staphylococcus aureus NRS 1 (hVISA)
[8] = Staphylococcus aureus NRS 24 (hVISA)

Compound	MIC [1, 7] [µg/mL]	MIC ([1]; Staphylococcus aureus NRS 2) [µg/mL]	MIC ([1]; Staphylococcus aureus NRS 3) [µg/mL]	MIC ([1]; Staphylococcus aureus NRS 4) [µg/mL]	MIC ([1]; Staphylococcus aureus NRS 13) [µg/mL]	MIC ([1]; Staphylococcus aureus NRS 18) [µg/mL]	MIC ([1]; Staphylococcus aureus NRS 22) [µg/mL]	MIC [1, 8] [µg/mL]	MIC ([1]; Staphylococcus aureus NRS 27) [µg/mL]	MIC [2] [µg/mL]	MIC, QC range [3]	further results
CC(=O)NC[C@H]1CN(c2ccc(N3CCOCC3)c(F)c2)C(=O)O1 [LZD]	1 (≈ 2.96 µM)	4 (≈ 11.9 µM)	1 (≈ 2.96 µM)	1 (≈ 2.96 µM)	2 (≈ 5.93 µM)	1 (≈ 2.96 µM)	1 (≈ 2.96 µM)	2 (≈ 5.93 µM)	2 (≈ 5.93 µM)	4 (≈ 11.9 µM)	(1-4) μg/mL	–
CN[C@H](CC(C)C)C(=O)N[C@H]1C(=O)N[C@@H](CC(N)=O)C(=O)N[C@H]2C(=O)N[C@H]3C(=O)N[C@H](C(=O)N[C@H](C(=O)O)c4cc(O)cc(O)c4-c4cc3ccc4O)[C@H](O)c3ccc(c(Cl)c3)Oc3cc2cc(c3O[C@@H]2O[C@H](CO)[C@@H](O)[C@H](O)[C@H]2O[C@H]2C[C@](C)(N)[C@H](O)[C@H](C)O2)Oc2ccc(cc2Cl)[C@H]1O [VAN]	4 (≈ 2.76 µM)	0.5 (≈ 0.345 µM)	8 (≈ 5.52 µM)	4 (≈ 2.76 µM)	2 (≈ 1.38 µM)	4 (≈ 2.76 µM)	4 (≈ 2.76 µM)	2 (≈ 1.38 µM)	2 (≈ 1.38 µM)	0.5 (≈ 0.345 µM)	(0.5-2) μg/mL	–
Penicillin	–	–	–	–	–	–	–	–	–	–	–	MIC ([4]; S. pneumoniae MMX 880, Lev^R SXT^R CC^R Ery^R Pen^R): 2 µg/mL; MIC ([4]; S. pneumoniae MMX 937, Mem^R SXT^R CC^R Ery^R Pen^R): 4 µg/mL; MIC ([4]; S. pneumoniae MMX 3959, CC^R Ery^R): 0.12 µg/mL; MIC ([4]; S. pneumoniae MMX 5440, Mem^R SXT^R CC^R Ery^R Pen^R): 4 µg/mL; MIC ([4]; S. pneumoniae MMX 5445, Mem^R SXT^R CC^R Ery^R Pen^R): 4 µg/mL; MIC ([4]; S. pneumoniae MMX 6837 (ATCC 49619), QC): 0.25 µg/mL; MIC ([4]; S. pneumoniae MMX 8133, Mem^R SXT^R CC^R Ery^R Pen^R): 4 µg/mL; MIC, CLSI QC range [5]: (0.25-1) μg/mL; MIC ([6]; S. agalactiae MMX 3741, ERY^R CC^R): 0.03 µg/mL; MIC ([6]; S. agalactiae MMX 3743, ERY^R CC^R): 0.06 µg/mL; MIC ([6]; S. agalactiae MMX 4077, ERY^R CC^R): 0.06 µg/mL; MIC ([6]; S. agalactiae MMX 4079, ERY^R CC^R Pen^R MEM^R): 2 µg/mL; MIC ([6]; S. agalactiae MMX 4086, ERY^R CC^R): 0.06 µg/mL; MIC ([6]; S. pyogenes MMX 3068, Ery^R): ≤0.008 µg/mL; MIC ([6]; S. pyogenes MMX 3820, ERY^R CLI^R): ≤0.008 µg/mL; MIC ([6]; S. pyogenes MMX 3919, ERY^R): ≤0.008 µg/mL; MIC ([6]; S. pyogenes MMX 3929, ERY^R CC^R): ≤0.008 µg/mL; MIC ([6]; S. pyogenes MMX 5091, ERY^R CC^R): ≤0.008 µg/mL
